Consider six molecules from publication PMC3544079 (MedChemComm, 2011).

Molecules are shown by their SMILES.

Type in all cases: biochemical
Test [1] addresses T1, S. cerevisiae transketolase (Saccharomyces cerevisiae, UniProt P23254).
T1 sequence (P23254 1-680): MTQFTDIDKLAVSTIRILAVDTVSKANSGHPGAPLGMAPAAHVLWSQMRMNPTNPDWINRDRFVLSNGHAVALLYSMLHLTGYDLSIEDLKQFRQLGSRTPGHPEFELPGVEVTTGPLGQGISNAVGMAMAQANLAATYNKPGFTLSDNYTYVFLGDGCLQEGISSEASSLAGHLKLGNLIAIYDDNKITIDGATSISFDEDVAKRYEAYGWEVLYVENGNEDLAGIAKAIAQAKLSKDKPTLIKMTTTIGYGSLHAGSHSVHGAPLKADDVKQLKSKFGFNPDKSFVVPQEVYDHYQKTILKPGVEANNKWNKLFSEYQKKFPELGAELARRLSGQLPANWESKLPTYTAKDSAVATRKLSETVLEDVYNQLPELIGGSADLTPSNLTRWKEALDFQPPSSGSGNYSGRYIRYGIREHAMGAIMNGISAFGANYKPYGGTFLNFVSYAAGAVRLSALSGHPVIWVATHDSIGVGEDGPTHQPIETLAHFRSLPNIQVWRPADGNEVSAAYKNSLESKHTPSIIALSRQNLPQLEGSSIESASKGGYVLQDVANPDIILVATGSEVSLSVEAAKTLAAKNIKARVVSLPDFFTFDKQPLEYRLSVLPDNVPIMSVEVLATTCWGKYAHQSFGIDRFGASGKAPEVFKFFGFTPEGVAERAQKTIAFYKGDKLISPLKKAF
Briefly: Inhibition of S. cerevisiae transketolase.

For another test, the target named is E. coli DXP synthase (Escherichia coli, UniProt P77488). Briefly: E. coli DXP synthase inhibition, spectrophotometric coupled assay. As to conditions: with respect to pyruvate.
In test [2] the target is T2, Porcine pyruvate dehydrogenase E1 subunit (Sus scrofa, UniProt P29804).
T2 sequence (P29804 30-390 limits assumed): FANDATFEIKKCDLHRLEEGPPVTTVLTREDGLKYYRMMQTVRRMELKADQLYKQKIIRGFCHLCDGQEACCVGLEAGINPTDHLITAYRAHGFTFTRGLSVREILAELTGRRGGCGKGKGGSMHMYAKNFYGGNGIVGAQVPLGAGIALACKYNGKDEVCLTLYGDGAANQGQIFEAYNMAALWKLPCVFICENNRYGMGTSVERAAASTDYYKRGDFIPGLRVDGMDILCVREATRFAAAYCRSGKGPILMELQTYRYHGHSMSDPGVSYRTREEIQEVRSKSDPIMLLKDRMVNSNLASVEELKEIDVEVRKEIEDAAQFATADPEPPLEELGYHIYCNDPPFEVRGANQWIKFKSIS
Briefly: Inhibition of porcine pyruvate dehydrogenase E1 subunit. The conditions noted are these: pyruvate varied, 0-1.0 mM BAP.

E. coli DXP synthase, sequence (P77488 whole entry): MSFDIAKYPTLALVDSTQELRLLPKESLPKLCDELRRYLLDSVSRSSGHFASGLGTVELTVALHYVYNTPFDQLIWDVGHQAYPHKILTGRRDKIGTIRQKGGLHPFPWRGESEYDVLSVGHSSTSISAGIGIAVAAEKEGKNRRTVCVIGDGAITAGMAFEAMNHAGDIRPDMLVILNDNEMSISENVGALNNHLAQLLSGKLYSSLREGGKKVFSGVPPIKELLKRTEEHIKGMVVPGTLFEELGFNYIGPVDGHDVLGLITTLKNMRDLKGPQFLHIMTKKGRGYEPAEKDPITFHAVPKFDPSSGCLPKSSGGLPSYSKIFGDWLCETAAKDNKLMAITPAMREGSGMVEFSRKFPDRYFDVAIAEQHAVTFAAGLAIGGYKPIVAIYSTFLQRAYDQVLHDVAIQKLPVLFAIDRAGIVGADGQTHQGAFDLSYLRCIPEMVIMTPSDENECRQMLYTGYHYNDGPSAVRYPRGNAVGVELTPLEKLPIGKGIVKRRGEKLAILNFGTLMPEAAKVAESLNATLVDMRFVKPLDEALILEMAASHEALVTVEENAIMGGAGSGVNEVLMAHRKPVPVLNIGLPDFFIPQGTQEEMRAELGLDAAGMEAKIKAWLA

The Ki is a dissociation constant, usually derived from enzyme kinetics or from competition with a known ligand. As for `CCCC(=O)P(=O)(O)OC` [Compound 5], in test [1], the Ki is more than 1000 µM.
Consider `CCCCOP(=O)([O-])C(C)=O.[Li+]` [Compound 3, butylacetylphosphonate], for which the mode of inhibition result on E. coli DXP synthase (listed as BAP) is “competitive mode of inhibition”; in test [2], “Competitive inhibition”. In test [1], this molecule had an inhibition constant (Ki) of more than 1000 µM.
In turn, `CCC(=O)P(=O)(O)OC` [Compound 4] came in with a Ki in test [1] of more than 1000 µM.
For `CCOP(=O)([O-])C(C)=O.[Li+]` [Compound 2, Ethylacetylphosphonate], the mode of inhibition entry on E. coli DXP synthase was “competitive mode of inhibition”. The molecule further showed an inhibitory constant (Ki) in test [1] of more than 1000 µM.
The molecule `CCCCC(=O)P(=O)(O)OC` [Compound 6] came in with a Ki in test [1] of more than 1000 µM.
As for `COP(=O)([O-])C(C)=O.[Li+]` [Compound 1, Methylacetylphosphonate, reference compound], the mode of inhibition entry at E. coli DXP synthase is on record as “competitive inhibitor against pyruvate”. In test [1], this molecule showed a Ki of more than 1000 µM.
